# Data published in ChEMBL document CHEMBL1909046, “DrugMatrix in vitro pharmacology data”.
# What was measured:
# [1] = DRUGMATRIX: ATPase, Na+/K+ enzyme inhibition (substrate: ATP); type: tissue-based, Sus scrofa, Heart; conditions: Not Active = under 50% inhibition at 10 µM
# [2] = biological target: T1, C-C chemokine receptor type 4 (Homo sapiens, UniProt P51679); type: cell membranes, Chem-1, Membrane; conditions: chem-1; also: in other assays of this panel Not Active means under 50% inhibition at 10 µM
# T1 sequence (P51679 whole entry): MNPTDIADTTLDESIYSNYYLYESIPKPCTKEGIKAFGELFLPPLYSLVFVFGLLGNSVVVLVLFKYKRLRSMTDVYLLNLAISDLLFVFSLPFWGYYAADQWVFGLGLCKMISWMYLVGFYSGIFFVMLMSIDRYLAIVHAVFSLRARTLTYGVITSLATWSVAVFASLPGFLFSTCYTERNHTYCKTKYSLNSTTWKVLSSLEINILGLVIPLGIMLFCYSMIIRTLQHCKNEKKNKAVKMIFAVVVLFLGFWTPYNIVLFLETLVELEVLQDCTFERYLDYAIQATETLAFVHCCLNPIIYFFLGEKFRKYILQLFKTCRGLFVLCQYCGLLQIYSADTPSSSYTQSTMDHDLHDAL
# [3] = biological target: T2, C-X-C chemokine receptor type 1 (Homo sapiens, UniProt P25024); also: in other assays of this panel Not Active means under 50% inhibition at 10 µM
# T2 sequence (P25024 whole entry): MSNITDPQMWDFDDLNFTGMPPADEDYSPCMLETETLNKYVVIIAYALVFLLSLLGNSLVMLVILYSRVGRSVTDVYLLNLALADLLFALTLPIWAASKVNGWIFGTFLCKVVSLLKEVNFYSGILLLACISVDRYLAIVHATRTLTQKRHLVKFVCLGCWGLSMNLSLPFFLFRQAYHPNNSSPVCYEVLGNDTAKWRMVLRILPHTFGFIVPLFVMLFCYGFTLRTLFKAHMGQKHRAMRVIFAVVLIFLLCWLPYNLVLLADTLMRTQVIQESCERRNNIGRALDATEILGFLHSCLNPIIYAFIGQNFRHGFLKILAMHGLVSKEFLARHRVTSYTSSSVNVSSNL
# [4] = DRUGMATRIX: GABAA, Flunitrazepam, Central radioligand binding (ligand: [3H] Flunitrazepam); type: cell membranes, Rattus norvegicus, Wistar, Brain, Membrane; conditions: Not Active = under 50% inhibition at 10 µM
# [5] = biological target: T3, 5-hydroxytryptamine receptor 1A (Rattus norvegicus, UniProt P19327); type: cell membranes, CHO-K1, Membrane; conditions: cho-k1; also: in other assays of this panel Not Active means under 50% inhibition at 10 µM
# T3 sequence (P19327 whole entry): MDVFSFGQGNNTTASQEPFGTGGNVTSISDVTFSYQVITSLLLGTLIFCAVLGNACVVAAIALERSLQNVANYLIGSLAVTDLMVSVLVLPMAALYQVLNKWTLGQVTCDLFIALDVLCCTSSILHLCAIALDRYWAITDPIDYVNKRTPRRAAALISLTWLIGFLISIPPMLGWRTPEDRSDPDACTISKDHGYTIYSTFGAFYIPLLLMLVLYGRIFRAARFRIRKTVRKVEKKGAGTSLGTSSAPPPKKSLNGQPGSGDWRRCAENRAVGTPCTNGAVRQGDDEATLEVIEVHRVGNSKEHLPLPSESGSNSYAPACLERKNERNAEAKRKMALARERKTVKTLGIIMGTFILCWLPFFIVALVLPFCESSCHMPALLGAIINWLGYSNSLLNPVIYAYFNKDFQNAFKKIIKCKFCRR
SMILES,IC50 [1],Ki [1],IC50 [2],IC50 [3],IC50 [4],Ki [4],IC50 [5],IC50 ([4]; read-out: IC50) [µM],Ki ([4]; read-out: Ki) [µM]
C1CCN2C[C@@H]3C[C@@H](CN4CCCC[C@@H]34)[C@H]2C1 [SPARTEINE],Not Active,Not Active,Not Active,Not Active,Not Active,Not Active,Not Active,,
Cc1cnc(NC(=O)C2=C(O)c3ccccc3S(=O)(=O)N2C)s1 [MELOXICAM],Not Active,Not Active,Not Active,Not Active,Not Active,Not Active,Not Active,,
CO[C@@]12[C@H](COC(N)=O)C3=C(C(=O)C(C)=C(N)C3=O)N1C[C@@H]1N[C@@H]12 [MITOMYCIN],Not Active,Not Active,Not Active,Not Active,Not Active,Not Active,Not Active,,
CC(Cl)(Cl)Cl [TRICHLOROETHANE],Not Active,Not Active,Not Active,Not Active,Not Active,Not Active,Not Active,,
O=[As][O-].[Na+] [SODIUM ARSENITE],Not Active,Not Active,Not Active,Not Active,Not Active,Not Active,Not Active,,
Cc1ccc(Cl)c(Nc2ccccc2C(=O)O)c1Cl [MECLOFENAMIC ACID],Not Active,Not Active,Not Active,Not Active,Not Active,Not Active,Not Active,,
Cc1ccc(S(=O)(=O)NC(=O)NN2CCCCCC2)cc1 [TOLAZAMIDE],Not Active,Not Active,Not Active,Not Active,Not Active,Not Active,Not Active,,
O=C(O)c1cc(/N=N/c2ccc(S(=O)(=O)Nc3ccccn3)cc2)ccc1O [SULFASALAZINE],Not Active,Not Active,Not Active,Not Active,Not Active,Not Active,Not Active,,
CC(=O)O[C@]1(C(C)=O)CC[C@H]2[C@@H]3C[C@H](C)C4=CC(=O)CC[C@]4(C)[C@H]3CC[C@@]21C [MEDROXYPROGESTERONE ACETATE],Not Active,Not Active,Not Active,Not Active,,,Not Active,7.74,6.3
CC[C@H](C)C(=O)O[C@H]1CCC=C2C=C[C@H](C)[C@H](CC[C@@H]3C[C@@H](O)CC(=O)O3)[C@H]21 [MEVASTATIN],Not Active,Not Active,Not Active,Not Active,Not Active,Not Active,Not Active,,
CCN(CC)CCNC(=O)c1cc(Cl)c(N)cc1OC [METOCLOPRAMIDE],Not Active,Not Active,Not Active,Not Active,Not Active,Not Active,Not Active,,
Cc1nnc(NS(=O)(=O)c2ccc(N)cc2)s1 [SULFAMETHIZOLE],Not Active,Not Active,Not Active,Not Active,Not Active,Not Active,Not Active,,
CCC(C)(C)C(=O)O[C@H]1C[C@@H](C)C=C2C=C[C@H](C)[C@H](CC[C@@H]3C[C@@H](O)CC(=O)O3)[C@H]21 [SIMVASTATIN],Not Active,Not Active,Not Active,Not Active,Not Active,Not Active,Not Active,,
CN1C(=O)OC(C)(C)C1=O [TRIMETHADIONE],Not Active,Not Active,Not Active,Not Active,Not Active,Not Active,Not Active,,
CC[C@H](C)[C@@H](CO[C@@H](Cc1ccccc1)C(=O)N[C@@H](CCS(C)(=O)=O)C(=O)OC(C)C)NC[C@@H](N)CS,Not Active,Not Active,Not Active,Not Active,Not Active,Not Active,Not Active,,
OC[C@@H](O)[C@@H](O)[C@H](O)[C@H](O)CO [MANNITOL],Not Active,Not Active,Not Active,Not Active,Not Active,Not Active,Not Active,,
Cc1cn([C@H]2C=C[C@@H](CO)O2)c(=O)[nH]c1=O [STAVUDINE],Not Active,Not Active,Not Active,Not Active,Not Active,Not Active,Not Active,,
C[N+]1(C)[C@@H]2C[C@@H](OC(=O)[C@H](CO)c3ccccc3)C[C@H]1[C@@H]1O[C@@H]12.[Br-] [METHSCOPOLAMINE BROMIDE],Not Active,Not Active,Not Active,Not Active,Not Active,Not Active,Not Active,,
CC1=C(/C=C/C(C)=C/C=C/C(C)=C/C(=O)O)C(C)(C)CCC1 [TRETINOIN],Not Active,Not Active,Not Active,Not Active,Not Active,Not Active,Not Active,,
